Source: US8710224B2, “Heterocyclic compounds as CCR2B antagonists” (AstraZeneca AB, priority 2004, dated 2014)

Biological target: T1, recombinant human CCR5 receptor (Homo sapiens, UniProt P51681)
T1 construct: expressed in transfected cells; host or cells: Chinese hamster ovary (CHO) cells; membranes
Experiment: Radioligand binding assay for inhibition of the binding of MIP-1α
Settings: displacement of 0.1 nM iodinated MIP-1α; membranes of Chinese hamster ovary cells expressing CCR5
Method in brief: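 Membranes from CHO cells expressing recombinant human CCR5 were incubated with 0.1 nM iodinated MIP-1α, scintillation proximity beads and compound at various concentrations. Bound radioligand was measured by scintillation counting.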

T1 sequence (P51681 whole entry): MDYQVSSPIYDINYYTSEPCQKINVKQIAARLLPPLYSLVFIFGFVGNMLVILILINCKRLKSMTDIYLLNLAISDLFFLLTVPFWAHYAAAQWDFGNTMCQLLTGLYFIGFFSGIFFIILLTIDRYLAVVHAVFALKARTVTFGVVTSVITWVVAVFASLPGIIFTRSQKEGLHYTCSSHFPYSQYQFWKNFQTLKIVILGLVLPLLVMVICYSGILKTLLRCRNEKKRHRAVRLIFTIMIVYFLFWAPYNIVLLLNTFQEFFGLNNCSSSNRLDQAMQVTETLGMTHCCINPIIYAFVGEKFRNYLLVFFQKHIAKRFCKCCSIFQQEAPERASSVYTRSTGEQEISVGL

SMILES	IC50
O=C(Nc1ccccc1)N1CCN(C[C@@H]2CCCN(CCc3c(Cl)cccc3Cl)C2)CC1 [Example 252, 4-[[(3R)-1-[2-(2,6-dichlorophenyl)ethyl]-3-piperidyl]methyl]-N-phenyl-piperazine-1-carboxamide]	< 10 µM
O=C(Nc1ccccc1)N1CCN(C[C@@H]2CCCN(CCc3ccc(F)cc3Cl)C2)CC1 [Example 251, 4-[[(3R)-1-[2-(2-chloro-4-fluoro-phenyl)ethyl]-3-piperidyl]methyl]-N-phenyl-piperazine-1-carboxamide]	< 10 µM
O=C(Nc1ccc(Cl)c(Cl)c1)N1CCN(C[C@H]2CCN([C@H]3CC[C@](O)(c4cccnc4)CC3)C2)CC1 [Example 228, N-(3,4-dichlorophenyl)-4-{[(3R)-1-(cis-4-hydroxy-4-pyridin-3-ylcyclohexyl)pyrrolidin-3-yl]methyl}piperazine-1-carboxamide]	< 10 µM

Results, then the molecule that gave them:

IC50	SMILES
< 10 µM	O=C(Nc1ccc(Cl)c(Cl)c1)N1CCN(C(=O)[C@H]2CN(CC3CC3)CCN2)CC1 [Example 268, 4-{[(2R)-4-(cyclopropylmethyl)piperazin-2-yl]carbonyl}-N-(3,4-dichlorophenyl)piperazine-1-carboxamide]
< 10 µM	CCN1CCC[C@@H](C(=O)N2CCN(C(=O)Nc3ccc(Cl)c(Cl)c3)CC2)C1 [Example 90, N-(3,4-dichlorophenyl)-4-{[(3R)-1-ethylpiperidin-3-yl]carbonyl}piperazine-1-carboxamide]
< 10 µM	O=C(Nc1ccc(Cl)c(Cl)c1)N1CCN(C[C@@H]2CCCN(C3CCOCC3)C2)CC1 [Example 172, N-(3,4-Dichlorophenyl)-4-{[(3S)-1-(tetrahydro-2H-pyran-4-yl)piperidin-3-yl]methyl}piperazine-1-carboxamide]
< 10 µM	O=C(Nc1ccc(Cl)c(Cl)c1)N1CCN(CC2CCN([C@H]3CC[C@](O)(c4ccncc4)CC3)C2)CC1 (stereo partly shown) [Example 150, N-(3,4-dichlorophenyl)-4-{[1-(4-hydroxy-4-pyridin-4-ylcyclohexyl)pyrrolidin-3-yl]methyl}piperazine-1-carboxamide]
